Experimental findings from US20150051203A1, “TRIAZOLE DERIVATIVES AS HSP90 INHIBITORS” (Synta Pharmaceuticals Corp., priority 2012, published 2015) are described below.

Like-named read-outs stand apart in the source and are kept apart here.

As a reminder, the Papp A→B is how fast a substance crosses the layer from the apical side.

A short description of series [1]: Caco-2 permeability assay. Format: in vitro ADME. The note with it: human. Here is the method:
Caco-2 cells were cultured on 24-well plates at 0.8×10^5 cells/cm^2 for approximately 20 days until TEER values were above 300 Ωcm^2. Caco-2 monolayers were rinsed twice with transport buffer (HBSS supplemented with 10 mM HEPES and 25 mM glucose, pH 7.4) and then pre-incubated for 30 min. Test and control compound solutions were loaded into the donor (A) or acceptor (B) compartments of a 24-well plate and incubated at 37° C. with 5% CO2 and 65% humidity for 2 h. For A to B permeability, the donor wells contained test compound and corresponding acceptor wells contained transport buffer. For B to A permeability, the […]. Atenolol and propranolol were used as low and high permeability compound controls, respectively. Digoxin was used was a P-gp substrate control. Cell viability was tested with Lucifer yellow at the end of the study.
Permeability was calculated as follows:
[formula] PappA to B={0.0005376×([Drug] Acceptor/[Drug] Initial)}
PappB to A={0.0001792×([Drug] Acceptor/[Drug] Initial)}
Polarization Ratio=PappB to A/PappA to B
Polarization ratio >2 considered as an efflux (P-gp) substrate.
On the technique in general: Passage across Caco-2 layers is used to estimate intestinal permeability.

The nature of series [2]: Exploratory small molecule PK study in rats. Format: in vivo, male Sprague-Dawley rats. Further details: AUClast: unit not given here. The conditions noted are these: rat; for half-life: male, Sprague-Dawley, plasma, read-out: T½ (converted). Here is the method: PK studies were conducted in male Sprague-Dawley rats. One group was dosed by IV (n=2) and another group was dosed orally (n=3). Blood samples were collected in lithium heparin coated microfuge tubes at 5 (IV only), 15, 30 min, 1, 3, 4, 6, 8, 24 h post dose. Samples were then centrifuged under refrigerated conditions and plasma was collected for analysis.
A solvent-based protein precipitation procedure was used to measure the concentration of each compound in plasma and/or whole blood. Samples were analyzed with an Agilent 1100 HPLC (Santa Clara, Calif.) interfaced to an API 4000 tandem mass spectrometer (Applied Biosystems, Foster City, Calif.) using a Synergy, Hydro-RP column (4 μm, 2×50 mm; Phenomenex, Torrance, Calif.) at a flow rate of 0.5 ml/min. Mobile phase consisted of 10 mM ammonium acetate in water (A) and 10 mM ammonium acetate in 95/5 (v/v) methanol/water (B). Total run time was 5 min with the gradient elution. […] All standard curves were fit to a quadratic equation with a weighing factor of 1/(concentration)^2 to calculate compound concentrations.

In the next series the test system is Her2. Nature of the series: Degradation of Her2 in BT-474 cells (Western blot, Method 1). The class given is cell-based, Human. The conditions noted are these: 0.5 μM, overnight. Here is the method: BT-474 cells are treated with 0.5 μM, 2 μM, or 5 μM of 17AAG (a positive control) or 0.5 μM, 2 μM, or 5 μM of a compound of the invention overnight in DMEM medium. After treatment, each cytoplasmic sample is prepared from 1×10^6 cells by incubation of cell lysis buffer (#9803, Cell Signaling Technology) on ice for 10 minutes. The resulting supernatant used as the cytosol fractions is dissolved with sample buffer for SDS-PAGE and run on a SDS-PAGE gel, blotted onto a nitrocellulose membrane by using semi-dry transfer. Non-specific binding to nitrocellulose is blocked with 5% skim milk in TBS with 0.5% Tween at room temperature for 1 hour, then probed with anti-Her2/ErB2 mAb (rabbit IgG, #2242, Cell Signaling) and anti-Tubulin (T9026, Sigma) as housekeeping control protein. HRP-conjugated goat anti-rabbit IgG (H+L) and HRP-conjugated horse anti-mouse IgG (H+L) are used as secondary Ab (#7074, #7076, Cell Signaling) and LumiGLO reagent, 20× Peroxide (#7003, Cell Signaling) is used for visualization.
BT-474 cells were treated with 0.5 μM, 2 μM, or 5 μM of 17AAG (a positive control) or 0.5 μM, 2 μM, or 5 μM of a compound of the invention overnight in DMEM medium. After treatment, each cytoplasmic sample was prepared from 1×10^6 cells by incubation of cell lysis buffer (#9803, Cell Signaling Technology) on ice for 10 minutes. […]
A general note: A western blot detects proteins with antibodies after separation by electrophoresis.

Regarding `CC(C)c1n[nH]c2cc(O)c(-c3nnc(C(=O)NCC(F)(F)F)n3-c3ccc(N4CCOCC4)cc3)cc12` [Compound 38, 5-(6-hydroxy-3-isopropyl-1H-indazol-5-yl)-4-(4-morpholinophenyl)-N-(2,2,2-trifluoroethyl)-4H-1,2,4-triazole-3-carboxamide], the Papp A→B at 2 h in series [1] (A to B, 2 h, 37° C., pH 7.4) was found to be 12.4 ×10⁻⁶ cm/s. In addition, the efflux ratio at 2 h in series [1] (pH 7.4, ratio >2 considered as an efflux (P-gp) substrate, read-out: Pol. Ratio B-A/A-B) worked out at 2. Also, the half-life in series [2] (IV 5 mg/Kg, DPD) is 2.3 h; in series [2] (PO 25 mg/Kg, D5W) it was 10.7 h. The AUClast in series [2] (IV 5 mg/Kg, DPD) turned out to be 2.6; in series [2] (PO 25 mg/Kg, D5W), 0.07. Also, the F in series [2] (PO 25 mg/Kg D5W vs IV 5 mg/Kg DPD) is 0.52%.
In the case of `C=CCNC1=C2C[C@@H](C)C[C@H](OC)[C@H](O)[C@@H](C)/C=C(\C)[C@H](OC(N)=O)[C@@H](OC)/C=C\C=C(/C)C(=O)NC(=CC1=O)C2=O` [Compound 17AAG, 17-allylamino-17-demethoxygeldanamycin], the “degradation of Her2” value in the series on Her2 is given as “partial degradation of Her2”.
